Results: US12129258B2, “Diaryl macrocyclic compound and pharmaceutical composition, and use thereof” (PrimeGene (Beijing) Co., Ltd., priority 2018, dated 2024)
Like-named read-outs stand apart in the source and are kept apart here.

Assays:
TRKA [1] = biological target: T1, TRKA (Homo sapiens (Human), UniProt P04629); assay: HTRF kinase activity assay, TRKA; format: biochemical; settings: 90 μM ATP
Protocol: (§1) The IC50 values of the compounds were calculated using XLFIT5 (IDBS) software.

ALK-L1196M = ALK-L1196M (Homo sapiens (Human), UniProt Q9UM73, L1196M); assay: HTRF kinase activity assay, ALK-L1196M; format: biochemical; settings: 30 μM ATP
Protocol: as §1

TRKA [2] = biological target: T1, TRKA; assay: Mobility shift assay, TRKA kinase; format: biochemical; settings: ATP 47.8 μM
Description: (§2) The operation is described as follows:
(§3) Conversion %_Sample: conversion rate of sample;

ROS1 = ROS1 (Homo sapiens (Human), UniProt P08922); assay: Mobility shift assay, ROS1 kinase; format: biochemical; settings: ATP 26.7 μM
Description: as §2, §3

Ba/F3 ETV6-NTRK2-G639R = assay: Cell proliferation inhibition (CellTiter-Glo), Ba/F3 ETV6-NTRK2-G639R; format: cell-based; settings: Mus musculus, BaF3, 72 h, 72 hrs, read-out: IC50 proliferation Ba/F3 ETV6-NTRK2-G639R
Protocol: 4. Inhibitory Effect of Compounds on the Proliferation of TRK Fusion and Mutant Stable Cell Lines (IC50)
Six cell lines including Ba/F3 LMNA-NTRK1-WT, Ba/F3 LMNA-NTRK1-G595R, Ba/F3 ETV6-NTRK2-WT, Ba/F3 ETV6-NTRK2-G639R, Ba/F3 ETV6-NTRK2-G639R and Ba/F3 ETV6-NTRK3-G623R were used in this experiment. For the six cell lines, the maximum test concentration of the compound was 1 μM, 1 μM, 10 μM, […], 1 μM and 10 μM, were 3.16-fold gradient diluted to obtain 9 samples.
The operation is described briefly as follows:
The cells in logarithmic growth phase were harvested to ensure that the cell viability was above 90%. 3000 cell/well were seeded in 96-well plate (Corning, Cat #3603). The cells were incubated overnight with 5% CO2, 95% humidity at 37° C. Then each well containing the cells of the 96-well plate was added the compound solutions, 3 wells for each compound solution, and continued to incubate for another 72 hrs. Then CellTiter-Glo® kit (Promega, Cat #G7572) was used to do the detection. First, the CTG reagent was melted and the cell plate was balanced to room temperature. The same volume of CTG solution was added into each well and vibrated on the shaker for 5 minutes to lyse the cells. The cell plate was kept at room temperature for 20 minutes to stabilize the luminescent signal. The luminescent value was collected by SpectraMax microplate detector (MD, 2104-0010A). […] Cell survival rate (%)=(1umdrug−1ummedium)/(1umcell−lummedium)×100%

Ba/F3 ETV6-NTRK3-WT = assay: Cell proliferation inhibition (CellTiter-Glo), Ba/F3 ETV6-NTRK3-WT; format: cell-based; settings: Mus musculus, BaF3, 72 h, 72 hrs, read-out: IC50 proliferation Ba/F3 ETV6-NTRK3-WT
Ba/F3 LMNA-NTRK3-G623R = assay: Cell proliferation inhibition (CellTiter-Glo), Ba/F3 LMNA-NTRK3-G623R; format: cell-based; settings: Mus musculus, BaF3, 72 h, 72 hrs, read-out: IC50 proliferation Ba/F3 LMNA-NTRK3-G623R
[3] = test system: H1975 (L858R and T790M double mutation) cells; assay: Analysis of synergistic effect with EGFR inhibitor (Chou-Talalay), H1975 proliferation; format: cell-based; settings: combination with AZD9291, H1975 cells, 72 hr, Chou-Talalay index method
Protocol: 5. Analysis of Synergistic Effect
H1975 (L858R and T790M double mutation) cells were cultured in RPMI-1640 medium containing 10% FBS and 1% P/S ([…]). In the testing of the compounds, H1975 cells were seeded in 96-well plate (Corning, Cat #3917) at 3000 cell/well and the compounds were added at 195 μL solution/well. The initial test concentration of the compound was 10 μM, 3-fold gradient diluted to obtain 11 samples. 4 μL of each sample was added to 96 μL RPMI-1640 medium to dilute the 25× Compound. 5 μL was added to 195 μL cell medium (the final concentration of DMSO is 0.1%, v/v). After 72 hr incubation, 35 μL of CellTiter-Blue® (Promega, Cat #G8082) was added to the cells. The fluorescence signal was measured with FlexStation 3 (Molecular Devices) according to the instructions, and the IC50 value of the compound on cell proliferation inhibition was calculated by Graphpad Grism 5.0 software. The Chou-Talalay index method was used to analyze the effect of the combination. 0.9≤Combination Index (CI)≤1.1 means additive effect, 0.8≤CI<0.9 means low synergistic effect, 0.6≤CI<0.8 means medium synergistic effect, 0.4≤CI<0.6 means high synergistic effect, 0.2≤CI<0.4 means strong synergistic effect.

[4] = Pharmacokinetic analysis in rats; format: in vivo, Male SD rats; settings: rat
Protocol: 6. Pharmacokinetic Analysis
Male SD rats were grouped, each group having 3 rats. […] Animals were fasted overnight from 10 hours before administration to 4 hours after administration. Blood samples were collected at 0.25, 0.5, 1, 2, 4, 8 and 24 hours after administration in the oral group and at 0.083, 0.25, 0.5, 1, 2, 4, 8 and 24 hours after injection in the intravenous group. After isoflurane anesthesia, 0.3 ml whole blood collected through the fundus vein plexus was put into the heparin anticoagulant tube. The sample was centrifuged at 4° C. at 4000 rpm for 5 min. The plasma was transferred into the centrifuge tube and stored at −80° C. until analysis. The extract from the plasma extracted by protein precipitation was analyzed by LC/MS/MS.

[5] = Blood-to-brain distribution in rats; format: in vivo; settings: male, SD, rat, 10 mg/kg single oral gavage
Protocol: 7. Blood-to-Brain Distribution
Male SD rats were grouped, each group having 12 rats. Each group was given the compound of Examples (10 mg/kg) by single oral gavage. The animals were fasted overnight from 10 hours before administration to 4 hours after administration. The rats were killed at 0.5, 1, 4 and 12 hours after administration, and blood and brain tissues were collected. The samples were centrifuged at 4000 rpm at 4° C. for 5 min and plasma was transferred into the centrifuge tube and stored at −80° C. until analysis. The extract from the plasma extracted by protein precipitation was analyzed by LC/MS/MS.

T1 sequence (P04629 33-796): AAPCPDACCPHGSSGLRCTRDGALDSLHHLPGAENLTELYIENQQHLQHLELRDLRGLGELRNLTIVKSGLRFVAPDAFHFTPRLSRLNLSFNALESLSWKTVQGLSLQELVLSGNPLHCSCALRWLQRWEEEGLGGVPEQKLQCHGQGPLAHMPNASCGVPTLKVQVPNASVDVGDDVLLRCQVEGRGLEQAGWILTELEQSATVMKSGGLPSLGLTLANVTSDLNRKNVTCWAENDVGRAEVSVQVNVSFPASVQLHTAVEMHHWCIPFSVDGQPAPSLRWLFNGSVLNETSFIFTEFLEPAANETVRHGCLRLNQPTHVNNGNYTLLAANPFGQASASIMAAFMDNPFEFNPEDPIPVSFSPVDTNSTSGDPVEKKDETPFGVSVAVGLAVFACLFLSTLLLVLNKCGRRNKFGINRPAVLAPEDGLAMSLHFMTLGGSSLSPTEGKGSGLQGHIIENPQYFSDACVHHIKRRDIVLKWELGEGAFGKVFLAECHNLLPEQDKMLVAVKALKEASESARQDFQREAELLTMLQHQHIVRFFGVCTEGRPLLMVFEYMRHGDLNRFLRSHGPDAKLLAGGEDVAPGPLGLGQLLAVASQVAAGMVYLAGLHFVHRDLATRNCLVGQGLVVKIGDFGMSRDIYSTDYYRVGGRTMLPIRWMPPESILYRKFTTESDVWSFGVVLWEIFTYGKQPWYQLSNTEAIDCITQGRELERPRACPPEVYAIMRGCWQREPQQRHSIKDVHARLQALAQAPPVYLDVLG
Chain of ALK-L1196M (Q9UM73 19-1620 L1196M): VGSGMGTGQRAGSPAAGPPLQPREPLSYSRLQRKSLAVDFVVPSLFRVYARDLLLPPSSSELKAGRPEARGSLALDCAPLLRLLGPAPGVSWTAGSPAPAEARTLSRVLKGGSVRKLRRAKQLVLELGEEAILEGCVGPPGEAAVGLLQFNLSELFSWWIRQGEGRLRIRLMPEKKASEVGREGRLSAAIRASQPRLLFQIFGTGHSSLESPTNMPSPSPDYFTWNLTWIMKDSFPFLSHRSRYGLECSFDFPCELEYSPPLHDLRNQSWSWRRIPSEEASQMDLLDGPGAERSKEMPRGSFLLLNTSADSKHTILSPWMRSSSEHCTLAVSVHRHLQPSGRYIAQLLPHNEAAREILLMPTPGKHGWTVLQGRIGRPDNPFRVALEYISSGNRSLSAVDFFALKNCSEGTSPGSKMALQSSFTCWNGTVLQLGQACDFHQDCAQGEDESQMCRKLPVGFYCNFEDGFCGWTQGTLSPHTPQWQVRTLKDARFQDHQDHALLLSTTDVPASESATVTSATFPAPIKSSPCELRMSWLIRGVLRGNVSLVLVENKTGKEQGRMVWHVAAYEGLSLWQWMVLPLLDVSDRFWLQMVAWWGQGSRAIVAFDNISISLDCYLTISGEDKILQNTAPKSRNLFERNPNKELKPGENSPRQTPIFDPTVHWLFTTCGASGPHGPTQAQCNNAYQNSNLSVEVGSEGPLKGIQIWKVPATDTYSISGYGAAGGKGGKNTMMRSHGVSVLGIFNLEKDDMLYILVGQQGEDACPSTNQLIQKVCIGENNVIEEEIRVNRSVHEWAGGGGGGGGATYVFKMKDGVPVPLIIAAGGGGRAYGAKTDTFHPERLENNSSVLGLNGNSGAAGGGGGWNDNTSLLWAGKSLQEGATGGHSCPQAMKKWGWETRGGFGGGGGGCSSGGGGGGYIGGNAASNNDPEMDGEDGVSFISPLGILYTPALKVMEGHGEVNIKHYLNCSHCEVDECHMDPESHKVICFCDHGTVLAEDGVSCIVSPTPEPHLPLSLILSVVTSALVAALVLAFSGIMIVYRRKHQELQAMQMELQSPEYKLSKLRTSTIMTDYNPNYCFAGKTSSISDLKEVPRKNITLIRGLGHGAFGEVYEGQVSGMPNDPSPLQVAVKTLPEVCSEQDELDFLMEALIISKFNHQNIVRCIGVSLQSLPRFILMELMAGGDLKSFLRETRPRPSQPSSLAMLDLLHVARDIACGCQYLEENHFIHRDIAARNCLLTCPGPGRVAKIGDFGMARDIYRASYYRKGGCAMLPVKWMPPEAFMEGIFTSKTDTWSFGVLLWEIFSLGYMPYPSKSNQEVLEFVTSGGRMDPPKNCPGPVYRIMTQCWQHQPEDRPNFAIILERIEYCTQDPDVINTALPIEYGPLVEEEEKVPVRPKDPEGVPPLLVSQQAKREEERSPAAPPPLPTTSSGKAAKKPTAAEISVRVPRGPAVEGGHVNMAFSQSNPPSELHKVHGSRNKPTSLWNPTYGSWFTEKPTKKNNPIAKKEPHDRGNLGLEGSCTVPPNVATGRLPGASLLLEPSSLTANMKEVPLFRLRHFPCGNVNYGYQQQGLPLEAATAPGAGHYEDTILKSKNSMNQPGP
Chain of ROS1 (P08922 28-2347): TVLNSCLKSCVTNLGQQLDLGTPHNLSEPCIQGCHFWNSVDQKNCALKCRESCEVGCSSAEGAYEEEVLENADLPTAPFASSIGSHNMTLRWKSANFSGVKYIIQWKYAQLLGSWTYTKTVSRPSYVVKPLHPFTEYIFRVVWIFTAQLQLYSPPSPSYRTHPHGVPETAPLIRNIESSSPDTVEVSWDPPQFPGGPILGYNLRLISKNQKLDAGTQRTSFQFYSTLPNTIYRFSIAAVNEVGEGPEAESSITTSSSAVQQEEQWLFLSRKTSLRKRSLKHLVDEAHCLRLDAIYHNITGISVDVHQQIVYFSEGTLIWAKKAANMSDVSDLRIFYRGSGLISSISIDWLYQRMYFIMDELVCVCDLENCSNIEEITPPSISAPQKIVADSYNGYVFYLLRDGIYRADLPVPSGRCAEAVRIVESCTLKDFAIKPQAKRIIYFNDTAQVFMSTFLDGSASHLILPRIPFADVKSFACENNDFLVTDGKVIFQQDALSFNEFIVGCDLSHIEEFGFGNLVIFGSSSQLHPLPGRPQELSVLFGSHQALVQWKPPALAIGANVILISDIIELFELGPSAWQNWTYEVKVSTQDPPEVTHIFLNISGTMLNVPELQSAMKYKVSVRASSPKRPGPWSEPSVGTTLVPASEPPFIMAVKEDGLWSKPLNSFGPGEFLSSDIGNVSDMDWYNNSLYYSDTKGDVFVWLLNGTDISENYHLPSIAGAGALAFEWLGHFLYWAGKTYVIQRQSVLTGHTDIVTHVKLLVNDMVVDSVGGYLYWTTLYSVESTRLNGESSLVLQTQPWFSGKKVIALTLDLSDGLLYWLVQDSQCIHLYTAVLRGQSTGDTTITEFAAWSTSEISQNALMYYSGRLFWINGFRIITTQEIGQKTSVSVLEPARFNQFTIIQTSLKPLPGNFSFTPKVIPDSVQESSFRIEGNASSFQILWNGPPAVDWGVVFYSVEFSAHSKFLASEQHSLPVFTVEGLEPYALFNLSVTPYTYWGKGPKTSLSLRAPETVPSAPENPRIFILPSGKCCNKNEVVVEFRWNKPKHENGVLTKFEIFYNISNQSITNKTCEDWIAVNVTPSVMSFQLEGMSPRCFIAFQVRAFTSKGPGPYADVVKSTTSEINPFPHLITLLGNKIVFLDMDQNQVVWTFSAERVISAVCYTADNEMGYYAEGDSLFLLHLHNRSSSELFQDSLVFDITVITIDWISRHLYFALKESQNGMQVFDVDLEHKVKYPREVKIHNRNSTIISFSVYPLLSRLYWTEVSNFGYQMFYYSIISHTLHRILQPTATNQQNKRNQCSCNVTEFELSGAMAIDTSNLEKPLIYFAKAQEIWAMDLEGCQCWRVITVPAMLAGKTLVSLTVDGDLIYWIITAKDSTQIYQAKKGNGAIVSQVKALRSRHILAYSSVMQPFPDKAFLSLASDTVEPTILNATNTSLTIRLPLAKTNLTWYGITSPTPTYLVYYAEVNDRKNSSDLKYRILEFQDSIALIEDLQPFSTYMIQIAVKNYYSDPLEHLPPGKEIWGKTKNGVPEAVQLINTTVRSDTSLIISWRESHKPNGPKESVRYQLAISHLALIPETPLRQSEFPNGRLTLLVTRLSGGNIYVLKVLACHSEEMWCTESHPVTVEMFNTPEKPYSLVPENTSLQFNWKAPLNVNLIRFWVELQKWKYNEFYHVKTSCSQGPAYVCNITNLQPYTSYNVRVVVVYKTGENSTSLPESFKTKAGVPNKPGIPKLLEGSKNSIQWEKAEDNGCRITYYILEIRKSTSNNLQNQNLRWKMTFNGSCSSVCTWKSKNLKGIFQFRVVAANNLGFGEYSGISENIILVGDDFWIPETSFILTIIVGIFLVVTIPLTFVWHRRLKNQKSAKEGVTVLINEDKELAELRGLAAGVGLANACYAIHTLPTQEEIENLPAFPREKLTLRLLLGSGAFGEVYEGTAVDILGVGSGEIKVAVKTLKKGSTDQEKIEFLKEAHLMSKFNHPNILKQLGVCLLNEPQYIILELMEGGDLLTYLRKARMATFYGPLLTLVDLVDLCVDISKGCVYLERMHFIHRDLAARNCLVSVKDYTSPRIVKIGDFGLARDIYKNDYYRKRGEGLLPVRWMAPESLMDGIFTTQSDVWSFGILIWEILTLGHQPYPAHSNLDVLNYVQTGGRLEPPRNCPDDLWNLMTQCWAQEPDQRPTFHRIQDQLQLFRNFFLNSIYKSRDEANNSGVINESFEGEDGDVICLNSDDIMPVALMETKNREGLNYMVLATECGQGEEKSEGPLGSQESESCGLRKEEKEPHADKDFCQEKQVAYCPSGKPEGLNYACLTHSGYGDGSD

In the case of `C[C@H]1COC(=O)c2cnn3ccc(nc23)N[C@H](C)c2cc(F)ccc2O1` [Example 1, (1^3E,1^4E,3R,6S)-4^5-fluoro-3,6-dimethyl-5,8-dioxa-2-aza-1(5,3)-pyrazolo[1,5-a]pyrimidina-4(1,2)-benzenacyclononaphan-9-one], the IC50 (TRKA [1]) is reported as 0.13 nM, the IC50 (ALK-L1196M) is reported as 50 nM and the IC50 (TRKA [2]) is reported as 0.42 nM. The IC50 (ROS1) was 0.33 nM, the IC50 (Ba/F3 ETV6-NTRK2-G639R; test batch marked #) was 64.6 nM and the IC50 (Ba/F3 ETV6-NTRK2-G639R; test batch marked *) was 100 nM. For the same compound, the IC50 (Ba/F3 ETV6-NTRK3-WT; test batch marked #) was 1.04 nM, the IC50 (Ba/F3 ETV6-NTRK3-WT; test batch marked *) was 0.2 nM and the IC50 (Ba/F3 LMNA-NTRK3-G623R; test batch marked #) was 8.34 nM. For the same compound, the IC50 (Ba/F3 LMNA-NTRK3-G623R; test batch marked *) was 8.4 nM, the “Combination Index (CI)” value [3] was 0.53-0.67 and the AUC(0-inf) ([4]; male, SD, plasma, IV, 1 mg/kg) was 621 ng·h/mL. The C0 ([4]; male, SD, plasma, IV, 1 mg/kg) was 217 ng/mL, the half-life ([4]; male, SD, plasma, IV, 1 mg/kg) was 1.7 h and the clearance ([4]; male, SD, plasma, IV, 1 mg/kg, read-out: C1 (clearance)) was 27.2 mL/min/kg. It also gave a Vd ([4]; male, SD, plasma, IV, 1 mg/kg, read-out: Vdss) of 4.26 L/kg, an AUC(0-inf) ([4]; male, SD, plasma, PO, 5 mg/kg) of 3550 ng·h/mL and a Cmax ([4]; male, SD, plasma, PO, 5 mg/kg) of 952 ng/mL. It also gave a Tmax ([4]; male, SD, plasma, PO, 5 mg/kg) of 0.667 h, a half-life ([4]; male, SD, plasma, PO, 5 mg/kg) of 1.84 h and a bioavailability ([4]; male, SD, plasma, po, 5 mg/kg, PO, 5 mg/kg, read-out: F (oral bioavailability)) of 100%. The “F (oral bioavailability)” value ([4]; PO, 5 mg/kg) was 114%, the “PK performance compared with TPX-0005” value ([4]; oral) was “better oral pharmacokinetic performance than that of TPX-0005” and the Kp ([5]; brain/plasma, AUC0-inf ratio) was 1.14. It also gave an AUC(0-inf) ([5]; brain, read-out: AUC0-inf Brain) of 20.8 µM·h and an AUC(0-inf) ([5]; plasma, read-out: AUC0-inf Plasma) of 18.2 µM·h.
